Results published in US5070210A, “Novel ketenimines as intermediates for insecticides” (ICI Americas Inc., priority 1990, dated 1991).

Key:
Type in all cases: in vivo
[1] = system: Tobacco Budworm [Heliothis virescens (Fabricius)] larvae; assay: Tobacco budworm contact test; conditions: second-instar larvae, percent in solution, 5 days
Protocol: The compounds in Tables 1 and 2 above were tested for insecticidal activity using the following testing procedures. LC50 values, based on the results of these tests and calculated according to dosage-mortality curves, are expressed in Table 3.
Tobacco Budworm [Heliothis virescens (Fabricius)]:
(a) Contact: Test compounds were diluted in a 50-50 acetone-water solution. Cotton (Gossypium sp.) cotyledons were immersed in the test solutions for 2-3 seconds and placed on a wire screen to dry. The dried leaves were placed in petri dishes containing a moistened piece of filter paper and infested with 5 second-instar tobacco budworm larvae. The dishes were placed in a high humidity chamber for 5 days, and percent mortality of the larvae recorded. Test concentrations ranged from 0.1% downward. The LC-50 values are expressed below in Table 3 under the heading "TBW-C" in terms of percent of the test compound in the solution.

[2] = system: Tobacco Budworm [Heliothis virescens (Fabricius)] eggs; assay: Tobacco budworm egg test; conditions: 2-day old eggs, percent in solution
How it was run: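 Paper-towel patches of 2-day-old eggs dipped in acetone solutions of compound (0.1% downward), held on larval rearing medium at 78° F. Mortality scored once all control eggs had hatched and larvae were feeding; LC50 from dosage-mortality curves, expressed as percent compound in solution.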

[3] = system: Maize weevil [Sitophilus Zeamais (Motschulsky)]; assay: Maize weevil insecticidal test; conditions: adult weevils, percent in solution; 48 hours
How it was run: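 LC50, in percent of compound in solution, was derived from dosage-mortality curves after 48 h at about 25 °C. Ten adult weevils per container fed on four corn seeds briefly immersed in acetone:water (50:50) solutions of up to 0.01% and dried.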

[4] = system: Cabbage Looper [Trichoplusia ni (Hubner)]; assay: Cabbage looper insecticidal test; conditions: second-instar larvae, percent in solution; 3-5 days
How it was run: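 Squash cotyledons dipped 2-3 s in compound in 50-50 acetone-water, dried, then infested with 5 second-instar larvae and held at high humidity. Mortality scored after 3-5 days at concentrations from 0.1% downward. LC50 from dosage-mortality curves, expressed as percent compound in solution.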

[5] = system: Housefly [Musca domestica]; assay: Housefly insecticidal test; conditions: μg per 25 female flies; mortality after 48 hours
How it was run: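 LC50 (μg compound per 25 female flies) derives from dosage-mortality curves of 48 h kill. Flies, females 1-2 days old, were held 25 per cage over a dish coated with dried acetone deposit, starting at 100 μg per cage and descending.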

[6] = system: Aster Leafhopper [Macrosteles fascifrens (Stal)]; assay: Aster leafhopper insecticidal test; conditions: adults/nymphs, percent in solution; 48 hours
How it was run: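 LC50 values, given as percent of test compound in the dip solution, were derived from dosage-mortality curves over concentrations from 0.05% downward. Mortality was counted 48 hours after ten leafhopper adults/nymphs were enclosed on treated seedlings. The seedlings were oats, about 10 cm tall, briefly dipped in 50-50 acetone-water.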

CC1(C(=Nc2ccc(Cl)cc2)OCc2cccc(Oc3ccccc3)c2)CC1 [Compound 5]
LC50, TBW, C (TBW-C) [1]: 0.008%
LC50, TBW, E (TBW-E) [2]: 0.05%
LC50, MW [3]: > 0.01%
LC50, CL [4]: 0.005%
LC50, HF [5]: 21 µg
LC50, LH [6]: > 0.05%

CC(C)(C)C(=Nc1ccc(Cl)cc1)OCc1cccc(Oc2ccccc2)c1 [Compound 30]
LC50, TBW, C (TBW-C) [1]: 0.01%
LC50, TBW, E (TBW-E) [2]: > 0.1%
LC50, MW [3]: > 0.01%
LC50, CL [4]: 0.003%
LC50, HF [5]: > 100 µg
LC50, LH [6]: > 0.05%

CC(C)C(=Nc1ccc(Cl)c(Cl)c1)OCc1cccc(Oc2ccc(F)cc2)c1 [Compound 37]
LC50, TBW, C (TBW-C) [1]: 0.0005%
LC50, TBW, E (TBW-E) [2]: 0.014%
LC50, MW [3]: 0.009%
LC50, CL [4]: 0.0004%
LC50, HF [5]: 21 µg
LC50, LH [6]: 0.002%

ClC(Cl)C(=Nc1ccccc1)OCc1cccc(Oc2ccccc2)c1 [Compound 41]
LC50, TBW, C (TBW-C) [1]: 0.0035%
LC50, TBW, E (TBW-E) [2]: 0.04%
LC50, CL [4]: 0.015%
LC50, HF [5]: 4.5 µg

Fc1ccc(N=C(OCc2cccc(Oc3ccccc3)c2)C(Cl)Cl)cc1 [Compound 44]
LC50, TBW, C (TBW-C) [1]: < 0.1%
LC50, TBW, E (TBW-E) [2]: 0.06%
LC50, HF [5]: 3 µg

CC(C)C(=Nc1c(F)c(F)c(F)c(F)c1F)OCc1cccc(Oc2ccccc2)c1 [Compound 51]
LC50, TBW, C (TBW-C) [1]: 0.0025%
LC50, TBW, E (TBW-E) [2]: 0.067%
LC50, CL [4]: 0.001%
LC50, HF [5]: 25 µg
LC50, LH [6]: 0.001%

CC(C)C(=Nc1ccc(F)c(F)c1)OCc1cccc(Oc2ccc(F)cc2)c1 [Compound 60]
LC50, TBW, C (TBW-C) [1]: 0.0009%
LC50, TBW, E (TBW-E) [2]: 0.017%
LC50, MW [3]: 0.0075%
LC50, CL [4]: 0.001%
LC50, HF [5]: 8 µg
LC50, LH [6]: 0.002%

Cc1c(F)cccc1N=C(OCc1cccc(Oc2ccccc2)c1)C(C)C [Compound 73]
LC50, TBW, C (TBW-C) [1]: 0.005%
LC50, TBW, E (TBW-E) [2]: 0.025%
LC50, CL [4]: 0.004%
LC50, HF [5]: 25 µg

Cc1ccc(F)cc1N=C(OCc1cccc(Oc2ccccc2)c1)C(C)C [Compound 74]
LC50, TBW, C (TBW-C) [1]: 0.0025%
LC50, TBW, E (TBW-E) [2]: 0.025%
LC50, CL [4]: 0.005%
LC50, HF [5]: 25 µg

Cc1ccc(N=C(OCc2cccc(Oc3ccccc3)c2)C(C)C)cc1F [Compound 75]
LC50, TBW, C (TBW-C) [1]: 0.0075%
LC50, TBW, E (TBW-E) [2]: 0.01%
LC50, CL [4]: 0.0025%
LC50, HF [5]: 5 µg
LC50, LH [6]: 0.0008%

COc1ccc(N=C(OCc2cccc(Oc3ccccc3)c2)C(C)C)cc1Cl [Compound 95]
LC50, TBW, C (TBW-C) [1]: 0.004%
LC50, TBW, E (TBW-E) [2]: 0.025%
LC50, CL [4]: 0.0025%
LC50, HF [5]: 10 µg

Cc1cc(Cl)ccc1N=C(OCc1cccc(Oc2ccccc2)c1)C(C)C [Compound 96]
LC50, TBW, C (TBW-C) [1]: 0.0025%
LC50, TBW, E (TBW-E) [2]: 0.025%
LC50, CL [4]: 0.003%
LC50, HF [5]: 35 µg

CC(C)C(=Nc1ccc(F)c(C(F)(F)F)c1)OCc1cccc(Oc2ccc(F)cc2)c1 [Compound 120]
LC50, TBW, C (TBW-C) [1]: 0.0025%
LC50, TBW, E (TBW-E) [2]: 0.04%
LC50, MW [3]: > 0.01%
LC50, CL [4]: 0.00015%
LC50, HF [5]: 14 µg
LC50, LH [6]: 0.0003%

CCOc1ccc(N=C(OCc2cccc(Oc3ccccc3)c2)C(Cl)Cl)cc1 [Compound 138]
LC50, TBW, C (TBW-C) [1]: 0.015%
LC50, TBW, E (TBW-E) [2]: 0.08%
LC50, MW [3]: > 0.01%
LC50, CL [4]: 0.005%
LC50, HF [5]: 19 µg
LC50, LH [6]: > 0.05%

CC(C)(C)c1ccc(N=C(OCc2cccc(Oc3ccccc3)c2)C(Cl)Cl)cc1 [Compound 140]
LC50, TBW, C (TBW-C) [1]: > 0.1%
LC50, TBW, E (TBW-E) [2]: > 0.1%
LC50, CL [4]: < 0.1%
LC50, HF [5]: > 100 µg

COc1ccccc1N=C(OCc1cccc(Oc2ccccc2)c1)C(C)C [Compound 145]
LC50, TBW, C (TBW-C) [1]: 0.05%
LC50, TBW, E (TBW-E) [2]: > 0.1%
LC50, CL [4]: 0.05%
LC50, HF [5]: > 100 µg
LC50, LH [6]: > 0.05%

COc1ccc(N=C(OCc2cccc(Oc3ccccc3)c2)C(C)C)c(OC)c1 [Compound 146]
LC50, TBW, C (TBW-C) [1]: 0.025%
LC50, TBW, E (TBW-E) [2]: > 0.1%
LC50, CL [4]: 0.017%
LC50, HF [5]: 40 µg

CC(=O)c1ccc(N=C(OCc2cccc(Oc3ccccc3)c2)C(C)C)cc1 [Compound 147]
LC50, TBW, C (TBW-C) [1]: 0.0075%
LC50, TBW, E (TBW-E) [2]: > 0.1%
LC50, CL [4]: 0.01%
LC50, HF [5]: 10 µg

CC(C)C(=Nc1cccc(Cl)c1)OCc1cccc(Oc2ccc(F)cc2)c1 [Compound 194]
LC50, TBW, C (TBW-C) [1]: 0.0017%
LC50, TBW, E (TBW-E) [2]: 0.04%
LC50, MW [3]: > 0.01%
LC50, CL [4]: 0.0005%
LC50, HF [5]: 10 µg
LC50, LH [6]: 0.0005%

CC(C)C(=Nc1ccc(F)c(Cl)c1)OCc1cccc(Oc2ccc(C#N)cc2)c1 [Compound 196]
LC50, TBW, C (TBW-C) [1]: 0.001%
LC50, TBW, E (TBW-E) [2]: > 0.1%
LC50, MW [3]: > 0.01%
LC50, CL [4]: 0.0006%
LC50, HF [5]: 17 µg
LC50, LH [6]: > 0.05%

CC(C)C(=Nc1cc(F)cc(F)c1)OCc1cccc(Oc2ccc(F)cc2)c1 [Compound 199]
LC50, TBW, C (TBW-C) [1]: 0.003%
LC50, TBW, E (TBW-E) [2]: > 0.1%
LC50, MW [3]: > 0.01%
LC50, CL [4]: 0.0006%
LC50, HF [5]: 8 µg

CC(C)C(=Nc1cccc(C(F)(F)F)c1)OCc1cccc(Oc2ccc(F)cc2)c1 [Compound 202]
LC50, TBW, C (TBW-C) [1]: 0.0007%
LC50, TBW, E (TBW-E) [2]: > 0.1%
LC50, MW [3]: > 0.01%
LC50, CL [4]: 0.00024%
LC50, HF [5]: 18 µg
LC50, LH [6]: 0.0003%

CC(C)(C)C(=Nc1ccc(F)c(Cl)c1)OCc1cccc(Oc2ccc(F)cc2)c1 [Compound 204]
LC50, TBW, C (TBW-C) [1]: 0.004%
LC50, TBW, E (TBW-E) [2]: > 0.1%
LC50, MW [3]: > 0.01%
LC50, CL [4]: 0.0023%
LC50, HF [5]: > 100 µg

CC(C)C(=Nc1ccc(F)cc1F)OCc1cccc(Oc2ccc(F)cc2)c1 [Compound 209]
LC50, TBW, C (TBW-C) [1]: 0.005%
LC50, TBW, E (TBW-E) [2]: 0.1%
LC50, MW [3]: > 0.01%
LC50, CL [4]: 0.0007%
LC50, HF [5]: 17 µg
LC50, LH [6]: 0.001%

CCC(C)C(=Nc1ccc(F)c(Cl)c1)OCc1cccc(Oc2ccc(F)cc2)c1 (stereo not shown) [Compound 210]
LC50, TBW, C (TBW-C) [1]: 0.0015%
LC50, TBW, E (TBW-E) [2]: 0.045%
LC50, MW [3]: > 0.01%
LC50, CL [4]: 0.00028%
LC50, HF [5]: 35 µg

CC(C)C(=Nc1ccc2c(c1)OC(C)(C)O2)OCc1cccc(Oc2ccc(F)cc2)c1 [Compound 219]
LC50, TBW, C (TBW-C) [1]: 0.004%
LC50, TBW, E (TBW-E) [2]: 0.027%
LC50, MW [3]: > 0.01%
LC50, CL [4]: 0.00025%
LC50, HF [5]: 50 µg

CC(C)C(=Nc1cccc(C(F)(F)F)c1)OCc1ccc(F)c(Oc2ccc(Cl)cc2)c1 [Compound 266]
LC50, TBW, C (TBW-C) [1]: 0.0007%
LC50, TBW, E (TBW-E) [2]: 0.06%
LC50, CL [4]: 0.00016%
LC50, HF [5]: 10 µg

C=C(C)C(=Nc1ccc(C(F)(F)F)cc1)OCc1ccc(F)c(Oc2ccc(Cl)cc2)c1 [Compound 432]
LC50, TBW, C (TBW-C) [1]: < 0.1%
LC50, TBW, E (TBW-E) [2]: 0.032%
LC50, MW [3]: > 0.01%
LC50, CL [4]: 0.0012%
LC50, HF [5]: < 100 µg
